# Earlier results, collected in publication PMC8672822 (RSC Medicinal Chemistry, 2021).
# Like-named read-outs stand apart in the source and are kept apart here.
# Tests used:
# DC-SIGN [1] = conditions: SPR competition
# murine Mincle = conditions: murine isoform
# human Mincle = conditions: human isoform
# [2] = tested on: peripheral blood mononuclear cells (PBMCs) or bone marrow-derived macrophages (BMDM)
# Langerin [3] = tested on: Langerin
# DC-SIGN [4] = conditions: monovalent
# [5] = in comparison to Man-α-1,2-Man
# DC-SIGN [6] = tested on: DC-SIGN
# DC-SIGN [7] = conditions: SPR direct
# DC-SIGN [8] = conditions: ITC
# Langerin [9] = tested on: Langerin; remark: listed apart in the source
# DC-SIGN [10] = conditions: relative to plate assay
compound,measurement,setting,value
2-C-aminomethyl-D-mannose [compound 21],IC50,DC-SIGN [1],350 µM
"Cc1cc(O)cc(O)c1C(=O)OC[C@H]1O[C@H](O[C@H]2O[C@H](COC(=O)c3c(C)cc(O)cc3O)[C@@H](O)[C@H](O)[C@H]2O)[C@H](O)[C@@H](O)[C@@H]1O [compound 3, brartemicin]",Ki,bovine Mincle,5.5 µM
same,binding,murine Mincle,no binding
same,binding,human Mincle,no binding
same,Mincle-induced immune activation,[2],no or a less effective Mincle-induced immune activation
CC(=O)NCCO[C@@H]1O[C@H](CO)[C@@H](O)[C@H](O)[C@H]1NS(=O)(=O)c1ccc(C)cc1 [compound 19],increase in binding affinity compared to the reference N-acetyl glucosamine,Langerin [3],13 fold
NC(=O)[C@H](CCC(=O)O)NC(=O)[C@H]1C[C@@H](O)[C@H](O)[C@H](O)[C@H]1SCCCCSCc1cccc(F)c1 [compound 22],IC50,DC-SIGN [4],3200 µM
COC(=O)[C@H]1C[C@H](OCCN)[C@@H](O[C@H]2O[C@H](CO)[C@@H](O)[C@H](O)[C@@H]2O)C[C@@H]1C(=O)OC [compound 24],"activity in comparison to Man-α-1,2-Man",DC-SIGN+ cells,three times more active
same,resistance towards enzymatic digestion,[5],more resistant
[N-]=[N+]=NCCO[C@H]1C[C@H](C(=O)NCc2ccc(CO)cc2)[C@@H](C(=O)NCc2ccc(CO)cc2)C[C@@H]1O[C@H]1O[C@H](CO)[C@@H](O)[C@H](O)[C@@H]1O [compound 25],IC50,DC-SIGN [6]; SPR competition,300 µM
[N-]=[N+]=NCCO[C@H]1C[C@H](C(=O)NCc2ccc(CO)cc2)[C@@H](C(=O)NCc2ccc(CO)cc2)C[C@@H]1O[C@H]1O[C@H](CN)[C@@H](O)[C@H](O)[C@@H]1O [compound 26],IC50,DC-SIGN [6]; SPR competitive,254 µM
same,Kd,DC-SIGN [7],310 µM
same,Kd,DC-SIGN [8],171 µM
same,selectivity for DC-SIGN over Langerin,Langerin [9],fully selective for DC-SIGN over Langerin
NCc1cn([C@@H]2[C@@H](O[C@H]3C[C@H](C(=O)NCc4ccc(CO)cc4)[C@@H](C(=O)NCc4ccc(CO)cc4)C[C@@H]3OCCCl)O[C@H](CO)[C@@H](O)[C@@H]2O)nn1 [compound 27],IC50,DC-SIGN [6]; SPR competitive,76 µM
same,Kd,DC-SIGN [7],53 µM
same,Kd,DC-SIGN [8],52 µM
same,selectivity for DC-SIGN over Langerin,Langerin [9],full selectivity against Langerin
CC(C)OC(=O)c1ccc(-c2ccc(/C=C3\C(=O)N(c4ccc(S(N)(=O)=O)cc4)N=C3C(F)(F)F)o2)cc1 [compound 33],decrease in affinity in cellular assay,DC-SIGN [10],up to 100 fold
NC(=O)c1ccc(CCCC2Nc3ccc(C(=O)N4CCN(c5ncccn5)CC4)cc3NC2=O)cc1 (stereo not shown) [compound 35],aqueous solubility,,improved aqueous solubility
NS(=O)(=O)c1ccc(CCCC2Nc3ccc(C(=O)N4CCN(c5ccncc5)CC4)cc3NC2=O)cc1 (stereo not shown) [compound 36],aqueous solubility,,improved aqueous solubility
OC[C@H]1O[C@H](O[C@H]2O[C@H](CO)[C@@H](O)[C@H](O)[C@H]2O)[C@H](O)[C@@H](O)[C@@H]1O [trehalose],macrophage activation,macrophage,no effect
